Data reported in patent US20190255091A1, “RNAi AGENTS FOR [sequence] B VIRUS INFECTION” (priority 2016, published 2019).
“And” between values parts separate entries of the source, which are not always exact repeats. Equal entries are not always repeated.

How the values were obtained:
HBV genotype C [1] = assay: Serum HBV DNA levels in HBV-infected humanized FRG model mice; assay type: in vivo
Text: (§1) For this study, Male FRG® (genotype Fah−/−/Rag2−/−/Il2rg−/− triple knockout mice on a C57BL/6 background (Yecuris) were transplanted with human hepatocytes when they were 1-2 months old. The human hepatocytes were allowed to repopulate the liver for approximately 6 months with periodic NTBC treatment to discourage growth of mouse hepatocytes. At 9 months of age the mice were given an intravenous inoculation of 4×10^8 genomes/kg HBV genotype C, which infected the human hepatocytes. After 2-3 months, serum HBV DNA levels reached a plateau indicating the human hepatocytes were maximally infected (mouse hepatocytes cannot be infected by HBV). Mice were one year old at the start of treatment with HBV RNAi agents, thus nearing the end of their life span.
(§2) Pre-treatment serum samples were taken on day −10 and day −3. Beginning on day 1, each mouse was administered an oral daily gavage with 0.01 mg/kg Entecavir dissolved in water to inhibit HBV replication. Daily dosing of Entecavir continued until the day mice were euthanized. Entecavir administration was expected to reduce serum HBV DNA in chronically infected human patients, but not reduce HBsAg.
(§3) Each mouse was also given a subcutaneous administration of 100 μl per 20 grams body weight containing the amount of HBV RNAi agent(s) formulated in phosphate buffered saline, or an equal volume of phosphate buffered saline without an HBV RNAi agent, on day 1 and on day 29 (if still alive on day 29), pursuant to the schedule as set forth in Table 47, directly above. […] The injections were performed between the skin and muscle (i.e. subcutaneous injections) into the loose skin over the neck and shoulder area.
Additionally, serum HBV DNA levels were determined from serum samples collected on days −10, −3, 8, 15, 22, 29, 36, and 40, pursuant to the procedure set forth in Example 2, above.

HBV genotype C [2] = assay: Serum HBsAg levels in HBV-infected humanized FRG model mice; assay type: in vivo; conditions: Group A: daily oral 0.01 mg/kg Entecavir, PBS (no RNAi agent), individual mouse
Text: as §1, §2, §3
Serum was collected on day 8, day 15, day 22, day 29, day 36, and day 40 and serum Hepatitis B surface antigen (HBsAg) levels were determined pursuant to the procedure set forth in Example 2, above.

**Q.** For `C=C1[C@H](CO)[C@@H](O)C[C@@H]1n1cnc2c(=O)[nH]c(N)nc21` [Entecavir], which “viral replication (serum HBV DNA)” value (HBV genotype C [1]; Example 18, 0.01 mg/kg oral daily gavage, absence and presence of HBV RNAi agents) is on record?
**A.** The value was “reduced viral replication”.

**Q.** And the “Serum HBV DNA levels normalized to the average of pre-treatment day −10 and day −3, Day 8” value (HBV genotype C [1]; Group A: daily oral 0.01 mg/kg Entecavir, PBS (no RNAi agent), individual mouse, Day 8)?
**A.** The value was 0.072 and 0.130.

**Q.** And the “Serum HBV DNA levels normalized to the average of pre-treatment day −10 and day −3, Day 15” value (HBV genotype C [1]; Group A: daily oral 0.01 mg/kg Entecavir, PBS (no RNAi agent), individual mouse, Day 15)?
**A.** The value was 0.038 and 0.075.

**Q.** What about the “Serum HBV DNA levels normalized to the average of pre-treatment day −10 and day −3, Day 22” value (HBV genotype C [1]; Group A: daily oral 0.01 mg/kg Entecavir, PBS (no RNAi agent), individual mouse, Day 22) of the same compound?
**A.** Its value is 0.015.

**Q.** What about the “Serum HBV DNA levels normalized to the average of pre-treatment day −10 and day −3, Day 29” value (HBV genotype C [1]; Group A: daily oral 0.01 mg/kg Entecavir, PBS (no RNAi agent), individual mouse, Day 29) of the same compound?
**A.** Its value is 0.027.

**Q.** And the “Serum HBV DNA levels normalized to the average of pre-treatment day −10 and day −3, Day 36” value (HBV genotype C [1]; Group A: daily oral 0.01 mg/kg Entecavir, PBS (no RNAi agent), individual mouse, Day 36)?
**A.** Its value is 0.060.

**Q.** What about the “HBsAg levels normalized to pre-treatment (day −3), Day 8” value (HBV genotype C [2]; Day 8) of the same compound?
**A.** The value was 0.830 and 1.303.

**Q.** And the “HBsAg levels normalized to pre-treatment (day −3), Day 15” value (HBV genotype C [2]; Day 15)?
**A.** Its value is 0.828 and 1.328.

**Q.** And the “HBsAg levels normalized to pre-treatment (day −3), Day 22” value (HBV genotype C [2]; Day 22)?
**A.** Its value is 0.932.

**Q.** And the “HBsAg levels normalized to pre-treatment (day −3), Day 29” value (HBV genotype C [2]; Day 29)?
**A.** The value was 0.858.

**Q.** What about the “HBsAg levels normalized to pre-treatment (day −3), Day 36” value (HBV genotype C [2]; Day 36) of the same compound?
**A.** The value was 1.107.
